From PubChem BioAssay AID1963981 (Molecular Pharmacology Branch, DTP, NCI, 2024)

Tested on: 354836-022-R-J1-PDC multicell spheroid viability
Experiment: Anticancer human tumor 354836-022-R-J1-PDC patient-derived head and neck squamous cell carcinoma cell line growth inhibition [PI3K]
Settings: for IC50: curve of first compound; for viability, T/C: stronger effect = lower value
Outline: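 Viability of mixed-cell spheroids was determined after exposure to pairwise combinations, one partner being inavolisib, alpelisib, duvelisib or copanlisib. Highest tested concentration matched clinical Cmax where known and 10 microM where not, descending in half-log steps.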

[1] = second compound 0.0316 µM, first compound 0.0316 µM
[2] = second compound 0.0316 µM, first compound 0.1 µM
[3] = second compound 0.0316 µM, first compound 0.316 µM
[4] = second compound 0.0316 µM, first compound 1 µM
[5] = second compound 0.1 µM, first compound 0.0316 µM
[6] = second compound 0.1 µM, first compound 0.1 µM
[7] = second compound 0.1 µM, first compound 0.316 µM
[8] = second compound 0.1 µM, first compound 1 µM
[9] = second compound 0.316 µM, first compound 0.0316 µM
[10] = second compound 0.316 µM, first compound 0.1 µM
[11] = second compound 0.316 µM, first compound 0.316 µM
[12] = second compound 0.316 µM, first compound 1 µM
[13] = second compound 1 µM, first compound 0.0316 µM
[14] = second compound 1 µM, first compound 0.1 µM
[15] = second compound 1 µM, first compound 0.316 µM
[16] = second compound 1 µM, first compound 1 µM
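Also: spheroids exposed to agents for seven days before the viability read.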

CCN1CCN(Cc2ccc(Nc3ncc(F)c(-c4cc(F)c5nc(C)n(C(C)C)c5c4)n3)nc2)CC1 + CC(Nc1ccc2c(c1)OCCn1cc(N3C(=O)OCC3C(F)F)nc1-2)C(N)=O
IC50 (second compound 0.00316 µM): > 1 µM
IC50 (second compound 0.01 µM): > 1 µM
IC50 (second compound 0.0316 µM): > 1 µM
IC50 (second compound 0.1 µM): 0.713 µM
IC50 (second compound 0.316 µM): 0.425 µM
IC50 (second compound 1 µM): 0.162 µM
viability, T/C (second compound 0.00316 µM, first compound 0.00316 µM): 99.9%
viability, T/C (second compound 0.00316 µM, first compound 0.01 µM): 99.6%
viability, T/C (second compound 0.00316 µM, first compound 0.0316 µM): 93.1%
viability, T/C (second compound 0.00316 µM, first compound 0.1 µM): 105%
viability, T/C (second compound 0.00316 µM, first compound 0.316 µM): 104%
viability, T/C (second compound 0.00316 µM, first compound 1 µM): 67.5%
viability, T/C (second compound 0.01 µM, first compound 0.00316 µM): 100%
viability, T/C (second compound 0.01 µM, first compound 0.01 µM): 97.8%
viability, T/C (second compound 0.01 µM, first compound 0.0316 µM): 116%
viability, T/C (second compound 0.01 µM, first compound 0.1 µM): 85%
viability, T/C (second compound 0.01 µM, first compound 0.316 µM): 89.2%
viability, T/C (second compound 0.01 µM, first compound 1 µM): 69.6%
viability, T/C (second compound 0.0316 µM, first compound 0.00316 µM): 95.8%
viability, T/C (second compound 0.0316 µM, first compound 0.01 µM): 80.7%
viability, T/C [1]: 84.7%
viability, T/C [2]: 101%
viability, T/C [3]: 85.7%
viability, T/C [4]: 57.5%
viability, T/C (second compound 0.1 µM, first compound 0.00316 µM): 89.2%
viability, T/C (second compound 0.1 µM, first compound 0.01 µM): 82.9%
viability, T/C [5]: 75.6%
viability, T/C [6]: 94.1%
viability, T/C [7]: 75.9%
viability, T/C [8]: 39.2%
viability, T/C (second compound 0.316 µM, first compound 0.00316 µM): 65%
viability, T/C (second compound 0.316 µM, first compound 0.01 µM): 79.3%
viability, T/C [9]: 67.5%
viability, T/C [10]: 62.1%
viability, T/C [11]: 61.5%
viability, T/C [12]: 22.9%
viability, T/C (second compound 1 µM, first compound 0.00316 µM): 64%
viability, T/C (second compound 1 µM, first compound 0.01 µM): 54.1%
viability, T/C [13]: 67.6%
viability, T/C [14]: 47.5%
viability, T/C [15]: 46.4%
viability, T/C [16]: 14.2%

CCCS(=O)(=O)Nc1ccc(F)c(C(=O)c2c[nH]c3ncc(-c4ccc(Cl)cc4)cc23)c1F + CC(Nc1ncnc2nc[nH]c12)c1cc2cccc(Cl)c2c(=O)n1-c1ccccc1
IC50 (second compound 0.0316 µM): 5.95 µM
IC50 (second compound 0.1 µM): 5.79 µM
IC50 (second compound 0.316 µM): 6.71 µM
IC50 (second compound 1 µM): 5.5 µM
IC50 (second compound 3.16 µM): 6.29 µM
IC50 (second compound 10 µM): 5.98 µM
viability, T/C [1]: 94.8%
viability, T/C [2]: 108%
viability, T/C [3]: 98.4%
viability, T/C [4]: 107%
viability, T/C (second compound 0.0316 µM, first compound 3.16 µM): 88.8%
viability, T/C (second compound 0.0316 µM, first compound 10 µM): 17.8%
viability, T/C [5]: 99.8%
viability, T/C [6]: 99.8%
viability, T/C [7]: 109%
viability, T/C [8]: 105%
viability, T/C (second compound 0.1 µM, first compound 3.16 µM): 83.8%
viability, T/C (second compound 0.1 µM, first compound 10 µM): 19.7%
viability, T/C [9]: 98%
viability, T/C [10]: 106%
viability, T/C [11]: 125%
viability, T/C [12]: 104%
viability, T/C (second compound 0.316 µM, first compound 3.16 µM): 110%
viability, T/C (second compound 0.316 µM, first compound 10 µM): 18.9%
viability, T/C [13]: 103%
viability, T/C [14]: 93.9%
viability, T/C [15]: 111%
viability, T/C [16]: 94.5%
viability, T/C (second compound 1 µM, first compound 3.16 µM): 81.1%
viability, T/C (second compound 1 µM, first compound 10 µM): 16.6%
viability, T/C (second compound 3.16 µM, first compound 0.0316 µM): 114%
viability, T/C (second compound 3.16 µM, first compound 0.1 µM): 111%
viability, T/C (second compound 3.16 µM, first compound 0.316 µM): 105%
viability, T/C (second compound 3.16 µM, first compound 1 µM): 106%
viability, T/C (second compound 3.16 µM, first compound 3.16 µM): 92.9%
viability, T/C (second compound 3.16 µM, first compound 10 µM): 21.1%
viability, T/C (second compound 10 µM, first compound 0.0316 µM): 89.7%
viability, T/C (second compound 10 µM, first compound 0.1 µM): 96%
viability, T/C (second compound 10 µM, first compound 0.316 µM): 94.2%
viability, T/C (second compound 10 µM, first compound 1 µM): 88.7%
viability, T/C (second compound 10 µM, first compound 3.16 µM): 92.6%
viability, T/C (second compound 10 µM, first compound 10 µM): 16%
